According to patent publication US20240293447A1, “Materials and Methods for Prevention and Treatment of Diarrhea and Inflammation in the Gastrointestinal Tract” (University of Florida Research Foundation, Inc., priority 2012, published 2024):

Test system: colitis in mice
Assay: Colitis in mice (dextran sulfate sodium (DSS)-induced colitis) after CaSR-activating nutrients
Type: in vivo
Conditions: three-to-six-week-old mice received CaSR-activating nutrients (calcium, spermine, tryptophan, cinacalcet); figure legends only
Protocol: Briefly, three-to-six-week-old, pre-pubertal rats and mice (WT v. villin/cre-floxed CaSR) received antigens or CaSR-activating nutrients (calcium, spermine, tryptophan, and cinacalcet). After treatment, mice and rats were sacrificed, and epithelial barrier, cytokine expression, dendritic cell, T cell, and B cell activation, and response to inflammatory stress were determined (FIG. 2).

## C[C@@H](NCCCc1cccc(C(F)(F)F)c1)c1cccc2ccccc12 [cinacalcet]
  effect on colitis: can be used to treat colitis
